According to patent publication US12162872B2, “Cycloalkylurea derivative” (Sumitomo Pharma Co., Ltd., priority 2019, dated 2024):

Target: T1, Human orexin receptor type 2 (Homo sapiens, UniProt O43614)
T1 construct: expressed in transfected cells; host or cells: CHO cells (transient expression)
T1 sequence (O43614 1-444): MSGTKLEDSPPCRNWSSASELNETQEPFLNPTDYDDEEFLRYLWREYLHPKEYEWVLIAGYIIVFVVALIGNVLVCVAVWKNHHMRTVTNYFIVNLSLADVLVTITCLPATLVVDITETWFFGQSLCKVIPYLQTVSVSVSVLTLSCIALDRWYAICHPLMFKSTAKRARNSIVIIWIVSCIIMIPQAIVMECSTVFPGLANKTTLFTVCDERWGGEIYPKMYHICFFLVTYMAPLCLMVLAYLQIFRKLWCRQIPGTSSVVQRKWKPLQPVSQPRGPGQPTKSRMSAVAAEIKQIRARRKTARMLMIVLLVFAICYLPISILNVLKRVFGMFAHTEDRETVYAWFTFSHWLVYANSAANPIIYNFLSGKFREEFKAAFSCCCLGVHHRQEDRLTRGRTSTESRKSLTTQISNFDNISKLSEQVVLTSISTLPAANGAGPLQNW
Test: Test 2: Evaluation of agonist activity for orexin receptor type 2 (aequorin luminescence, intracellular calcium mobilization in CHO cells)
Type: cell-based
Conditions: relative percentage of luminescence for the luminescence (100%) of Orexin A (100 pM); CHO cells transiently expressing human orexin receptor type 2 and apoaequorin; Orexin A Lot. 671009
Protocol: Test 2: Evaluation of Agonist Activity for Orexin Receptor Type 2
Human orexin receptor type 2 and apoaequorin were transiently expressed in CHO cells, and the agonist activity was evaluated based on intracellular calcium mobilization with ligand stimulation. The CHO cells transiently-expressed human orexin receptor type 2 and apoaequorin were seeded on a 384-well plate by 2,000 cells/well, and then incubated for 16-22 hours. After the plate was returned to room temperature, Coelenterazine hcp (final concentration: 1 μM) was added to the plate, and the plate was allowed to stand at room temperature for 2 hours. And then, Orexin A (PEPTIDE INSTITUTE, INC., Lot. 671009) or each test compound was added to the plate, and the luminescence of the cells was measured with FDSS7000 (Hamamatsu Photonics K.K.), wherein Orexin A and each test compound were dissolved in DMSO (final concentration: 0.1%), and diluted with a buffer (Hanks, 20 mM HEPES, 0.1% BSA). The agonist activity of each test compound for orexin receptor type 2 was calculated as relative percentage of luminescence for the luminescence (100%) of Orexin A (100 pM).

| SMILES | agonist activity (%) |
| --- | --- |
| CC(C)N1CCN(C[C@H]2CCCC(F)(F)[C@@H]2NC(=O)N2CCC(C)(c3noc([C@@H]4C[C@@H]4F)n3)CC2)CC1 [Example 117, N-[(1R,6R)-2,2-difluoro-6-{[4-(propan-2-yl)piperazin-1-yl]methyl}cyclohexyl]-4-{5-[(1S,2S)-2-fluorocyclopropyl]-1,2,4-oxadiazol-3-yl}-4-methylpiperidine-1-carboxamide] | 465 |
| CN(CC1(C)CC1)C1CCN([C@H]2CCCC(F)(F)[C@@H]2NC(=O)N2CCC(C)(c3noc([C@@H]4C[C@@H]4F)n3)CC2)CC1 [Example 134, N-[(1R,6S)-2,2-difluoro-6-(4-{methyl[(1-methylcyclopropyl)methyl]amino}piperidin-1-yl)cyclohexyl]-4-{5-[(1S,2S)-2-fluorocyclopropyl]-1,2,4-oxadiazol-3-yl}-4-methylpiperidine-1-carboxamide] | 456 |
| CC(C)N1CCN([C@H]2CCC[C@H](F)[C@@H]2NC(=O)N2CCC(C)(c3noc([C@@H]4C[C@@H]4F)n3)CC2)CC1 [Example 156] | 323 |
| CN(CC1CC1)[C@H]1CCN([C@H]2CCCC(F)(F)[C@@H]2NC(=O)N2CCC(C)(c3noc(C4CC4)n3)CC2)C1 [Example 138, N-[(1R,6S)-6-{(3S)-3-[(cyclopropylmethyl)(methyl)amino]pyrrolidin-1-yl}-2,2-difluorocyclohexyl]-4-(5-cyclopropyl-1,2,4-oxadiazol-3-yl)-4-methylpiperidine-1-carboxamide] | 385 |
| Cc1ccc(C2(C)CCN(C(=O)N[C@@H]3[C@@H](O[C@H]4CCN(CC5(C)CC5)C4)CCCC3(F)F)CC2)cc1 [Example 130, N-[(1R,6S)-2,2-difluoro-6-({(3S)-1-[(1-methylcyclopropyl)methyl]pyrrolidin-3-yl}oxy)cyclohexyl]-4-methyl-4-(4-methylphenyl)piperidine-1-carboxamide] | 450 |
| CN(CC1CC1)[C@H]1CCCN([C@H]2CCCC(F)(F)[C@@H]2NC(=O)N2CCC(C)(c3noc([C@@H]4C[C@@H]4F)n3)CC2)CC1 [Example 144, N-[(1R,6S)-6-{(4S)-4-[(cyclopropylmethyl)(methyl)amino]azepan-1-yl}-2,2-difluorocyclohexyl]-4-{5-[(1S,2S)-2-fluorocyclopropyl]-1,2,4-oxadiazol-3-yl}-4-methylpiperidine-1-carboxamide] | 399 |
| CCN(C)C1CCN([C@H]2CCCC(F)(F)[C@@H]2NC(=O)N2CCC(C)(c3noc([C@@H]4C[C@@H]4F)n3)CC2)CC1 [Example 160, N-[(1R,6S)-6-{4-[ethyl(methyl)amino]piperidin-1-yl}-2,2-difluorocyclohexyl]-4-{5-[(1S,2S)-2-fluorocyclopropyl]-1,2,4-oxadiazol-3-yl}-4-methylpiperidine-1-carboxamide] | 410 |
| CN(C1CC1)[C@H]1CCN([C@H]2CCCC(F)(F)[C@@H]2NC(=O)N2CCC(C)(c3noc([C@@H]4C[C@@H]4F)n3)CC2)C1 [Example 115, N-[(1R,6S)-6-{(3S)-3-[cyclopropyl(methyl)amino]pyrrolidin-1-yl}-2,2-difluorocyclohexyl]-4-{5-[(1S,2S)-2-fluorocyclopropyl]-1,2,4-oxadiazol-3-yl}-4-methylpiperidine-1-carboxamide] | 403 |
| CC(C)N(C)C1(C)CCN([C@H]2CCCC(F)(F)[C@@H]2NC(=O)N2CCC(C)(c3noc([C@@H]4C[C@@H]4F)n3)CC2)CC1 [Example 131, N-[(1R,6S)-2,2-difluoro-6-{4-methyl-4-[methyl(propan-2-yl)amino]piperidin-1-yl}cyclohexyl]-4-{5-[(1S,2S)-2-fluorocyclopropyl]-1,2,4-oxadiazol-3-yl}-4-methylpiperidine-1-carboxamide] | 461 |
| CN(CC1CC1)[C@H]1CCN([C@H]2CCCC(F)(F)[C@@H]2NC(=O)N2CCC(C)(c3noc([C@@H]4C[C@@H]4F)n3)CC2)C1 [Example 137, N-[(1R,6S)-6-{(3S)-3-[(cyclopropylmethyl)(methyl)amino]pyrrolidin-1-yl}-2,2-difluorocyclohexyl]-4-{5-[(1S,2S)-2-fluorocyclopropyl]-1,2,4-oxadiazol-3-yl}-4-methylpiperidine-1-carboxamide] | 376 |

The remaining lines, values ahead:

| agonist activity (%) | SMILES |
| --- | --- |
| 289 | CC(C)N1C[C@H]2CC[C@@H](C1)[C@@H]2O[C@H]1CCCC(F)(F)[C@@H]1NC(=O)N1CCC(C)(c2noc([C@@H]3C[C@@H]3F)n2)CC1 [Example 104, N-[(1R,6S)-2,2-difluoro-6-{[(1R,5S,8S)-3-(propan-2-yl)-3-azabicyclo[3.2.1]octan-8-yl]oxy}cyclohexyl]-4-{5-[(1S,2S)-2-fluorocyclopropyl]-1,2,4-oxadiazol-3-yl}-4-methylpiperidine-1-carboxamide] |
| 374 | CC(C)N1CC[C@H](N[C@H]2CCCC(F)(F)[C@@H]2NC(=O)N2CCC(C)(c3noc([C@@H]4C[C@@H]4F)n3)CC2)C1 [Example 161, N-[(1R,6S)-2,2-Difluoro-6-{[(3S)-1-(propan-2-yl)pyrrolidin-3-yl]amino}cyclohexyl]-4-{5-[(1S,2S)-2-fluorocyclopropyl]-1,2,4-oxadiazol-3-yl}-4-methylpiperidine-1-carboxamide] |
| 371 | CC(C)N1CCC(O[C@H]2CCCC(F)(F)[C@@H]2NC(=O)N2CCC(C)(c3noc([C@@H]4C[C@@H]4F)n3)CC2)CC1 [Example 83, N-[(1R,6S)-2,2-difluoro-6-{[1-(propan-2-yl)piperidin-4-yl]oxy}cyclohexyl]-4-{5-[(1S,2S)-2-fluorocyclopropyl]-1,2,4-oxadiazol-3-yl}-4-methylpiperidine-1-carboxamide] |
| 167 | CC(C)N1CCC(S(=O)(=O)[C@H]2CCCC(F)(F)[C@@H]2NC(=O)N2CCC(C)(c3noc([C@@H]4C[C@@H]4F)n3)CC2)CC1 [Example 155, N-{(1S,6S)-2,2-difluoro-6-[1-(propan-2-yl)piperidine-4-sulfonyl]cyclohexyl}-4-{5-[(1S,2S)-2-fluorocyclopropyl]-1,2,4-oxadiazol-3-yl}-4-methylpiperidine-1-carboxamide] |
| 392 | CC(C)CN(C)C1CCN([C@H]2CCCC(F)(F)[C@@H]2NC(=O)N2CCC(C)(c3noc([C@@H]4C[C@@H]4F)n3)CC2)CC1 [Example 157, N-[(1R,6S)-2,2-difluoro-6-{4-[methyl(2-methylpropyl)amino]piperidin-1-yl}cyclohexyl]-4-{5-[(1S,2S)-2-fluorocyclopropyl]-1,2,4-oxadiazol-3-yl}-4-methylpiperidine-1-carboxamide] |
| 387 | CC(C)(C)CN1CC[C@H](O[C@H]2CCCC(F)(F)[C@@H]2NC(=O)N2CCC(C)(c3noc([C@@H]4C[C@@H]4F)n3)CC2)C1 [Example 120, N-[(1R,6S)-6-{[(3S)-1-(2,2-dimethylpropyl)pyrrolidin-3-yl]oxy}-2,2-difluorocyclohexyl]-4-{5-[(1S,2S)-2-fluorocyclopropyl]-1,2,4-oxadiazol-3-yl}-4-methylpiperidine-1-carboxamide] |
| 470 | CC(C)N1CCCN([C@H]2CCCC(F)(F)[C@@H]2NC(=O)N2CCC(C)(c3noc([C@@H]4C[C@@H]4F)n3)CC2)CC1 [Example 152, N-{(1R,6S)-2,2-difluoro-6-[4-(propan-2-yl)-1,4-diazepan-1-yl]cyclohexyl}-4-{5-[(1S,2S)-2-fluorocyclopropyl]-1,2,4-oxadiazol-3-yl}-4-methylpiperidine-1-carboxamide] |
| 382 | CC(C)N1CCN([C@H]2CCCC(F)(F)[C@@H]2NC(=O)N2CCC(C)(c3noc([C@@H]4C[C@@H]4F)n3)CC2)[C@H](C)C1 [Example 111, N-{(1R,6S)-2,2-difluoro-6-[(2R)-2-methyl-4-(propan-2-yl)piperazin-1-yl]cyclohexyl}-4-{5-[(1S,2S)-2-fluorocyclopropyl]-1,2,4-oxadiazol-3-yl}-4-methylpiperidine-1-carboxamide] |

Same assay, conditions: relative percentage of luminescence for the luminescence (100%) of Orexin A (100 pM); CHO cells transiently expressing human orexin receptor type 2 and apoaequorin; Orexin A Lot. 671009; 0.0001 µM

| SMILES | agonist activity (%) |
| --- | --- |
| CN(CC1CC1)C1C[C@H]2CC[C@@H](C1)N2[C@H]1CCCC(F)(F)[C@@H]1NC(=O)N1CCC(C)(c2noc([C@@H]3C[C@@H]3F)n2)CC1 (stereo partly drawn) [Example 141, N-[(1R,6S)-6-{(1R,3R,5S)-3-[(cyclopropylmethyl)(methyl)amino]-8-azabicyclo[3.2.1]octan-8-yl}-2,2-difluorocyclohexyl]-4-{5-[(1S,2S)-2-fluorocyclopropyl]-1,2,4-oxadiazol-3-yl}-4-methylpiperidine-1-carboxamide] | 405 |
